Results reported in PubChem BioAssay AID2060343 (Molecular Pharmacology Branch, DTP, NCI, 2025).

Test system: 138582-337-R-J1-PDC spheroids with HUVEC/MSC, viability
Assay: Anticancer human tumor 138582-337-R-J1-PDC patient-derived Merkel cell tumor cell line growth inhibition [IpAb]
Settings: for IC50: curve of first compound; for viability, T/C: stronger effect = lower value
Text: Combinatorial screen of targeted agents with ipatasertib and abemaciclib in multi-cell type tumor spheroids
A high-throughput screen of multi-cell type tumor spheroids was designed to identify active combinations of targeted small molecules and ipatasertib or abemaciclib. Complex spheroids include a stromal component modeled by human endothelial cells (HUVEC) and fibroblasts modeled by human mesenchymal stem cells (MSCs). The concentration ranges selected for each drug and investigational agent were based upon clinically achievable concentrations if the clinical Cmax of the agent was known.
Compounds. The drugs and investigational agents: ipatasertib (NSC767898), abemaciclib(NSC768073), selumetinib (NSC741078), trametinib (758246), adavosertib (NSC754352), everolimus (NSC733504), sapanisertib (NSC764658), vemurafenib (NSC761431), venetoclax (NSC766270), copanlisib (NSC809693), apelisib (NSC765974), palbociblib (NSC758247), vemurafenib (NSC761431), dabrafenib (NSC764134), ravoxertinib (NSC781343), BMS-387032 (NSC767048), sotorasib (NSC818433), talazoparib (NSC767125) and afursertib (NSC778305), were obtained from the National Cancer Institute (NCI) Developmental Therapeutics Program Chemical Repository. The FDA-approved anticancer drug set is available from the NCI Developmental Therapeutics Program. […] The stock solutions were prepared in dimethyl sulfoxide (DMSO, Sigma-Aldrich, St. Louis, MO, cat. D2650) at 800-fold the tested concentration and stored at -70 degrees C prior to their use. All drugs and investigational agents were tested over a range starting from a high concentration at or near the clinical Cmax and decreasing in half-log increments. If the clinical Cmax for an agent had not been determined, the highest concentration tested was 10 microM.
NCI60 Cell Culture. NCI60 cell lines were obtained from the NCI Developmental Therapeutics Program Tumor Repository. For each lot of cells, the Repository performed Applied Biosystems AmpFLSTR Identifiler testing with PCR amplification to confirm consistency with the published Identifier STR profile for each cell line. Cells were kept in continuous culture for no more than 20 passages. The optimal seeding densities for each of the cell lines at each time point assessed were determined prior to performing the concentration response studies. Briefly, the NCI60 human tumor lines were grown as monolayers in RPMI 1640 medium supplemented with 10% FBS and 2 mmol/L L-glutamine.
An additional 9 lines were from the NCI60 cell line panel including MDA-MB-231 breast carcinoma, MDA-MB-468 breast carcinoma, MCF7 breast carcinoma, Hs578T breast carcinoma, MALME-3M melanoma, SK-MEL-2 melanoma, SK-OV-3 ovarian carcinoma, DU-145 prostate carcinoma, PC-3 prostate carcinoma, all cell lines along with major genetic alterations are listed on Table 2. Pooled donor human umbilical vein endothelial cells (HUVEC, Lonza, cat. CC-2519) and human mesenchymal stem cells (hMSC, Lonza, cat. PT-2501) were purchased from Lonza (Walkersville, MD).
PDMR cell lines were grown in complete medium (DC medium): Dulbecco's modified Eagle's medium (DMEM)/F12 supplemented with 5% fetal bovine serum (FBS), 2 mM L-glutamine, 100 U/mL penicillin and 100 µg/ml streptomycin, 0.4 µg/ml hydrocortisone, 10 ng/ml epidermal growth factor (EGF) recombinant human protein, 24 µg/mL adenine, and 0.1 mg/mL primocin. During culture from frozen stock vials, PDMR cells were cultured in the same medium containing 10 µM Y-27632 (see Table 3). The PDCs were cultured in complete DMEM/F12 media without 10 microM Y-27632 dihydrochloride for at least two passages prior to the screen. The pooled donor HUVEC and hMSC were cultured in endothelial cell growth medium 2 (PromoCell, Heidelberg, Germany, cat. C-22011) and mesenchymal stem cell growth medium 2 (PromoCell, cat. C-28009), respectively. For all experiments, HUVEC and hMSC were used at passages </=5.
[…]

[1] = second compound 0.1 µM, first compound 0.0316 µM
[2] = second compound 0.1 µM, first compound 0.1 µM
[3] = second compound 0.1 µM, first compound 0.316 µM
[4] = second compound 0.1 µM, first compound 1 µM
[5] = second compound 0.1 µM, first compound 3.16 µM
[6] = second compound 0.1 µM, first compound 10 µM
[7] = second compound 0.316 µM, first compound 0.0316 µM
[8] = second compound 0.316 µM, first compound 0.1 µM
[9] = second compound 0.316 µM, first compound 0.316 µM
[10] = second compound 0.316 µM, first compound 1 µM
[11] = second compound 0.316 µM, first compound 3.16 µM
[12] = second compound 0.316 µM, first compound 10 µM
[13] = second compound 1 µM, first compound 0.0316 µM
[14] = second compound 1 µM, first compound 0.1 µM
[15] = second compound 1 µM, first compound 0.316 µM
[16] = second compound 1 µM, first compound 1 µM
[17] = second compound 1 µM, first compound 3.16 µM
[18] = second compound 1 µM, first compound 10 µM
[19] = second compound 0.01 µM, first compound 0.0316 µM
[20] = second compound 0.01 µM, first compound 0.1 µM
[21] = second compound 0.01 µM, first compound 0.316 µM
[22] = second compound 0.01 µM, first compound 1 µM
[23] = second compound 0.01 µM, first compound 3.16 µM
[24] = second compound 0.01 µM, first compound 10 µM
[25] = second compound 0.0316 µM, first compound 0.0316 µM
[26] = second compound 0.0316 µM, first compound 0.1 µM
[27] = second compound 0.0316 µM, first compound 0.316 µM
[28] = second compound 0.0316 µM, first compound 1 µM
[29] = second compound 0.0316 µM, first compound 3.16 µM
[30] = second compound 0.0316 µM, first compound 10 µM
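Also: spheroids exposed to compounds for seven days.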
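For viability, T/C in this document: 100% = DMSO vehicle control viability.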

Compound | IC50 (second compound 0.1 µM) [µM] | IC50 (second compound 0.316 µM) [µM] | IC50 (second compound 1 µM) [µM] | viability, T/C [1] [%] | viability, T/C [2] [%] | viability, T/C [3] [%] | viability, T/C [4] [%] | viability, T/C [5] [%] | viability, T/C [6] [%] | viability, T/C [7] [%] | viability, T/C [8] [%] | viability, T/C [9] [%] | viability, T/C [10] [%] | viability, T/C [11] [%] | viability, T/C [12] [%] | viability, T/C [13] [%] | viability, T/C [14] [%] | viability, T/C [15] [%] | viability, T/C [16] [%] | viability, T/C [17] [%] | other results
C=CC(=O)N1CCN(c2nc(=O)n(-c3c(C)ccnc3C(C)C)c3nc(-c4c(O)cccc4F)c(F)cc23)C(C)C1 (stereo not given) + CC(C)NCC(C(=O)N1CCN(c2ncnc3c2C(C)CC3O)CC1)c1ccc(Cl)cc1 | > 10 | > 10 | > 10 | 90.2 | 95.5 | 91.4 | 101 | 115 | 168 | 90.6 | 86.2 | 83.5 | 90.1 | 105 | 132 | 71.9 | 66.6 | 71.4 | 74.9 | 86.6 | IC50 (second compound 3.16 µM): > 10 µM; IC50 (second compound 10 µM): 0.0316 µM; viability, T/C [18]: 77.5%; viability, T/C (second compound 3.16 µM, first compound 0.0316 µM): 57.1%; viability, T/C (second compound 3.16 µM, first compound 0.1 µM): 56.8%; viability, T/C (second compound 3.16 µM, first compound 0.316 µM): 59.4%; viability, T/C (second compound 3.16 µM, first compound 1 µM): 63.4%; viability, T/C (second compound 3.16 µM, first compound 3.16 µM): 69%; viability, T/C (second compound 3.16 µM, first compound 10 µM): 54%; viability, T/C (second compound 10 µM, first compound 0.0316 µM): 38.7%; viability, T/C (second compound 10 µM, first compound 0.1 µM): 49.9%; viability, T/C (second compound 10 µM, first compound 0.316 µM): 47.9%; viability, T/C (second compound 10 µM, first compound 1 µM): 47.6%; viability, T/C (second compound 10 µM, first compound 3.16 µM): 52.4%; viability, T/C (second compound 10 µM, first compound 10 µM): 32.3%
C=CCn1c(=O)c2cnc(Nc3ccc(N4CCN(C)CC4)cc3)nc2n1-c1cccc(C(C)(C)O)n1 + CCN1CCN(Cc2ccc(Nc3ncc(F)c(-c4cc(F)c5nc(C)n(C(C)C)c5c4)n3)nc2)CC1 | > 10 | > 10 | > 10 | 91.4 | 98.7 | 91.7 | 90.3 | 116 | 141 | 86.4 | 96.2 | 87.6 | 94.1 | 116 | 144 | 102 | 109 | 101 | 105 | 114 | IC50 (second compound 0.01 µM): > 10 µM; IC50 (second compound 0.0316 µM): > 10 µM; viability, T/C [19]: 105%; viability, T/C [20]: 95.3%; viability, T/C [21]: 100%; viability, T/C [22]: 90.4%; viability, T/C [23]: 117%; viability, T/C [24]: 141%; viability, T/C [25]: 106%; viability, T/C [26]: 99.5%; viability, T/C [27]: 90.9%; viability, T/C [28]: 99.1%; viability, T/C [29]: 101%; viability, T/C [30]: 133%; viability, T/C [18]: 134%
Cn1nccc1Nc1nccc(-c2ccn(C(CO)c3ccc(Cl)c(F)c3)c(=O)c2)n1 (stereo not given) + CCN1CCN(Cc2ccc(Nc3ncc(F)c(-c4cc(F)c5nc(C)n(C(C)C)c5c4)n3)nc2)CC1 | > 10 | > 10 | > 10 | 79.9 | 89.8 | 79.6 | 90.2 | 108 | 134 | 89.8 | 82.7 | 88.6 | 96 | 124 | 173 | 106 | 96 | 83.2 | 97.6 | 142 | IC50 (second compound 0.01 µM): > 10 µM; IC50 (second compound 0.0316 µM): > 10 µM; viability, T/C [19]: 99.8%; viability, T/C [20]: 92.3%; viability, T/C [21]: 90.1%; viability, T/C [22]: 94.8%; viability, T/C [23]: 107%; viability, T/C [24]: 154%; viability, T/C [25]: 88.3%; viability, T/C [26]: 90.5%; viability, T/C [27]: 82.7%; viability, T/C [28]: 91.9%; viability, T/C [29]: 107%; viability, T/C [30]: 149%; viability, T/C [18]: 178%
